Results taken from ChEMBL document CHEMBL6120971 (J Med Chem, 2024).
pIC50: −log10 of the molar value. Activity calls are given as the source filed them. No cut-off for these calls is given here.

How the values were obtained:
MKN-45 [1] = assay: Antiproliferative activity against human MKN-45 cells incubated for 72 hrs by CCK8 assay; type: functional, cell-based; conditions: MKN-45, 72 h
[2] = molecular target: T1, Protein cereblon/Hepatocyte growth factor receptor (Homo sapiens, UniProt P08581+Q96SW2); assay: PROTAC activity at CRBN/c-MET in human MKN-45 cells assessed as induction of c-MET degradation at 1000 nM incubated for 24 hrs by Western blot analysis; type: cell-based
[3] = molecular target: T2, von Hippel-Lindau disease tumor suppressor/Hepatocyte growth factor receptor (Homo sapiens, UniProt P08581+P40337); assay: PROTAC activity at VHL/c-MET in human MKN-45 cells assessed as induction of c-MET degradation by measuring residual activity at 100 nM incubated for 24 hrs by Western blot analysis (reference value: 100 %); type: cell-based
Target sequence in this assay (P40337 whole entry partner): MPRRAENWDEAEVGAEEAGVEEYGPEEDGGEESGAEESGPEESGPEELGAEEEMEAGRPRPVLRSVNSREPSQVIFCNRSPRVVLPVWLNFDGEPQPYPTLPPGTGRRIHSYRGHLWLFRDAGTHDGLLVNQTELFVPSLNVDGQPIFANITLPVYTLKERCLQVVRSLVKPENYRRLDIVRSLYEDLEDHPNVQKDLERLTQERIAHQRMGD
Target sequence in this assay (P08581 25-1390 limits assumed): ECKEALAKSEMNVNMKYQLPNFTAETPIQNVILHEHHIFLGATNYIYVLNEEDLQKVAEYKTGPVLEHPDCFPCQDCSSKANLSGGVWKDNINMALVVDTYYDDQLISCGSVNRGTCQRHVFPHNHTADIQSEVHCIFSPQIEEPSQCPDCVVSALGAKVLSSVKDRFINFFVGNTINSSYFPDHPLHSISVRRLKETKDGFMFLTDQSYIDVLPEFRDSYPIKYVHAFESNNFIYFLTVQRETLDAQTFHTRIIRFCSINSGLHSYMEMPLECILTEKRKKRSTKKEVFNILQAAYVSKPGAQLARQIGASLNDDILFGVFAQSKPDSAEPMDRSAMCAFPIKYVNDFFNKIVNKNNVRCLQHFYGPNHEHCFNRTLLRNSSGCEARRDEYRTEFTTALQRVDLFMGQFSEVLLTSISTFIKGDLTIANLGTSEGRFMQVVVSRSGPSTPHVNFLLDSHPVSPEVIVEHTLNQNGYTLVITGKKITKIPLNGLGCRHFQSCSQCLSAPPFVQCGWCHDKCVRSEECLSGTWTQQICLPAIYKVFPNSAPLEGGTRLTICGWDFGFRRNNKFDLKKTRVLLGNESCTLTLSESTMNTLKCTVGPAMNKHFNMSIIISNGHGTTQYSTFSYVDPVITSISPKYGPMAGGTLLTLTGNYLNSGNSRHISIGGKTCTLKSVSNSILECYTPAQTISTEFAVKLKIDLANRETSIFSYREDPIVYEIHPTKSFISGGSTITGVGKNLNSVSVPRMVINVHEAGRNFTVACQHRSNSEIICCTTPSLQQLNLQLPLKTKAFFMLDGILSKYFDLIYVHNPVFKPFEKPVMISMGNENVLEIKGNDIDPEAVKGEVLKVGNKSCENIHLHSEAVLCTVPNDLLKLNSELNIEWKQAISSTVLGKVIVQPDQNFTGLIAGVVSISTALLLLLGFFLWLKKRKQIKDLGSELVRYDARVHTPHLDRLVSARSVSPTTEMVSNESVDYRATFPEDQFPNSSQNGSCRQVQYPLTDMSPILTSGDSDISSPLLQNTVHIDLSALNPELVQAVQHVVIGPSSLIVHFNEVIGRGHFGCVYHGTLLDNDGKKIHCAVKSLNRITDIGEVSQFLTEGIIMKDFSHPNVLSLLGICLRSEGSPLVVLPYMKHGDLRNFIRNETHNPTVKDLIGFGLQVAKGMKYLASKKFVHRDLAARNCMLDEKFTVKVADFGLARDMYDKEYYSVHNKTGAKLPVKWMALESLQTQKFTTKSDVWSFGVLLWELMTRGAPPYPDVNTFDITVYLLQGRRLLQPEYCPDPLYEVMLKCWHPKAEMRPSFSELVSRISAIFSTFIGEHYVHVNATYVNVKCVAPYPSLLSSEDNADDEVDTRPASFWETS

MKN-45 [4] = assay: Induction of c-MET degradation in human MKN-45 cells assessed as residual activity at 100 nM incubated for 24 hrs by Western blot analysis (reference value: 100 %); type: cell-based
[5] = molecular target: T1, Protein cereblon/Hepatocyte growth factor receptor; assay: PROTAC activity at CRBN/c-MET in human MKN-45 cells assessed as induction of c-MET degradation at 3.125 to 50 nM by Western blot analysis; type: cell-based; conditions: dose 3.125-50 nM
[6] = molecular target: T2, von Hippel-Lindau disease tumor suppressor/Hepatocyte growth factor receptor; assay: PROTAC activity at VHL/c-MET (unknown origin); type: protein
Target sequence in this assay (P08581 whole entry): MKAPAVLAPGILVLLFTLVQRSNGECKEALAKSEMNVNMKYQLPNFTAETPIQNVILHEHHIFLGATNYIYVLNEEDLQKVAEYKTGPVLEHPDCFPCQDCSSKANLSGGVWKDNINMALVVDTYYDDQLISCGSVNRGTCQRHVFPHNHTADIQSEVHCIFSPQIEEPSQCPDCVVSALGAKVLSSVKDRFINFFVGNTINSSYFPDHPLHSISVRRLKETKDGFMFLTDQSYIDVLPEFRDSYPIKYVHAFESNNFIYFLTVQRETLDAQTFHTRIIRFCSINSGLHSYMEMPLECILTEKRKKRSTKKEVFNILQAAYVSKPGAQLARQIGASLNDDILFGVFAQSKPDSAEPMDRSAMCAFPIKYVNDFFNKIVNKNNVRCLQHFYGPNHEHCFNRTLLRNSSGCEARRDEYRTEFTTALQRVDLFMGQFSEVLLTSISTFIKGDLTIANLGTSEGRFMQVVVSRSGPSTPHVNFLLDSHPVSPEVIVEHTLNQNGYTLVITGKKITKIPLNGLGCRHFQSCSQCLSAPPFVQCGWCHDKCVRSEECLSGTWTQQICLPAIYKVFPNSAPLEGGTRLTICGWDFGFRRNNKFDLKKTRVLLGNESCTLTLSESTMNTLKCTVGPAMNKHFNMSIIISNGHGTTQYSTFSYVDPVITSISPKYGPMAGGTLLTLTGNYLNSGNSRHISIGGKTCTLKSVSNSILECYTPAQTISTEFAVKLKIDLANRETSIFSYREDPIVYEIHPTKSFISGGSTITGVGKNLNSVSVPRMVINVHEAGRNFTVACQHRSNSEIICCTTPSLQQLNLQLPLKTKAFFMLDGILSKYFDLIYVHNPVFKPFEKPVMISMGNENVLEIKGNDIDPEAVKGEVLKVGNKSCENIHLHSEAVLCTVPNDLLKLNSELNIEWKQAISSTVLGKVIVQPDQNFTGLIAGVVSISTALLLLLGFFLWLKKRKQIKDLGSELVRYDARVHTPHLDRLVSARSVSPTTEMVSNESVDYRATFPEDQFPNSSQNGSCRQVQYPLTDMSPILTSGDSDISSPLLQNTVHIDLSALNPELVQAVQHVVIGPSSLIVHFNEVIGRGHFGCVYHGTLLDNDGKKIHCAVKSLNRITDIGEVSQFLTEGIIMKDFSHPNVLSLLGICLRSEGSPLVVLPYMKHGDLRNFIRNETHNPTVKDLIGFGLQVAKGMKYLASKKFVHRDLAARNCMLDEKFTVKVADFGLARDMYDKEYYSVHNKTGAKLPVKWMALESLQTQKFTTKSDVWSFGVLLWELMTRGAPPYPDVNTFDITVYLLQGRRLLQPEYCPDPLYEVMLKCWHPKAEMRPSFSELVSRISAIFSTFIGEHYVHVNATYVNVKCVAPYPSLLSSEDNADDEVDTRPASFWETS
Target sequence in this assay (P40337 whole entry): as the sequence (P40337 whole entry partner) above

[7] = molecular target: T2, von Hippel-Lindau disease tumor suppressor/Hepatocyte growth factor receptor; assay: PROTAC activity at VHL/c-MET in human MKN-45 cells assessed as induction of c-MET degradation at 100 to 1000 nM incubated for 24 hrs by Western blot analysis relative to control; type: cell-based; conditions: dose 100-1000 nM
Target sequence in this assay (P40337 whole entry partner): as above
Target sequence in this assay (P08581 25-1390 limits assumed): as the sequence (P08581 25-1390 limits assumed) above

T1 sequence (P08581 25-1390 limits assumed): as above
T1 sequence (Q96SW2 whole entry partner): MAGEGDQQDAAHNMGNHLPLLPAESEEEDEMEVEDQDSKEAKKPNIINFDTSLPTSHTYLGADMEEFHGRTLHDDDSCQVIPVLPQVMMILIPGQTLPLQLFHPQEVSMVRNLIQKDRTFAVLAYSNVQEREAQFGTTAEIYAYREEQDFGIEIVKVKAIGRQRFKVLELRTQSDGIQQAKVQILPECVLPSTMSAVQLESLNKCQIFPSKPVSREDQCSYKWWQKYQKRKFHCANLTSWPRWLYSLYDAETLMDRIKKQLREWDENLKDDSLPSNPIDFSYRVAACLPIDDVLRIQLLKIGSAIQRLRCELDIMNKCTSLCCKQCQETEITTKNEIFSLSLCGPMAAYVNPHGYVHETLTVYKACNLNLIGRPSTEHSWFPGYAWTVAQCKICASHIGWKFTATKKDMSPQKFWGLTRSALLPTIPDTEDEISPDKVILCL

Compound	pIC50 (MKN-45 [1])	Activity [3] [%]	also measured
O=C(COc1cccc2c1C(=O)N(C1CCC(=O)NC1=O)C2=O)NCCCCCCCCCCNC(=O)c1ccc(-c2cnc3ncc(Cc4ccc5ncccc5c4)n3n2)cc1F (stereo unspecified)	7.56		Activity [2]: inactive
Cc1ncsc1-c1ccc([C@H](C)NC(=O)[C@@H]2C[C@@H](O)CN2C(=O)[C@@H](NC(=O)CN2CCN(CCCCCCNC(=O)c3ccc(-c4cnc5ncc(Cc6ccc7ncccc7c6)n5n4)cc3F)CC2)C(C)(C)C)cc1		79	
Cc1ncsc1-c1ccc([C@H](C)NC(=O)[C@@H]2C[C@@H](O)CN2C(=O)[C@@H](NC(=O)CN2CCN(CC(=O)N3CCC(n4cc(-c5cnc(N)c(O[C@H](C)c6c(Cl)ccc(F)c6Cl)c5)cn4)CC3)CC2)C(C)(C)C)cc1		123	
Cc1ncsc1-c1ccc([C@H](C)NC(=O)[C@@H]2C[C@@H](O)CN2C(=O)[C@@H](NC(=O)CCOCCOCCOCCC(=O)N2CCC(n3cc(-c4cnc(N)c(O[C@H](C)c5c(Cl)ccc(F)c5Cl)c4)cn3)CC2)C(C)(C)C)cc1		106	
C[C@@H](Oc1cc(-c2cnn(C3CCNCC3)c2)cnc1N)c1c(Cl)ccc(F)c1Cl			Activity (MKN-45 [4]): 110%
Cc1ncsc1-c1ccc([C@H](C)NC(=O)[C@@H]2C[C@@H](O)CN2C(=O)[C@@H](NC(=O)CCCCCCNC(=O)c2ccc(-c3cnc4ncc(Cc5ccc6ncccc6c5)n4n3)cc2F)C(C)(C)C)cc1	< 6.70		
Cc1ncsc1-c1ccc([C@H](C)NC(=O)[C@@H]2C[C@@H](O)CN2C(=O)[C@@H](NC(=O)CCCCC(=O)N2CCC(n3cc(-c4cnc(N)c(O[C@H](C)c5c(Cl)ccc(F)c5Cl)c4)cn3)CC2)C(C)(C)C)cc1	< 6.70	100	
Cc1ncsc1-c1ccc([C@H](C)NC(=O)[C@@H]2C[C@@H](O)CN2C(=O)[C@@H](NC(=O)CCCCCCCCCNC(=O)c2ccc(-c3cnc4ncc(Cc5ccc6ncccc6c5)n4n3)cc2F)C(C)(C)C)cc1	7.69	22	
Cc1ncsc1-c1ccc([C@H](C)NC(=O)[C@@H]2C[C@@H](O)CN2C(=O)[C@@H](NC(=O)CCOCCOCCC(=O)N2CCC(COc3cnc(-c4cccc(Cn5nc(-c6cccc(C#N)c6)ccc5=O)c4)nc3)CC2)C(C)(C)C)cc1		66	
Cc1ncsc1-c1ccc([C@H](C)NC(=O)[C@@H]2C[C@@H](O)CN2C(=O)[C@@H](NC(=O)CCCCC(=O)N2CCC(COc3cnc(-c4cccc(Cn5nc(-c6cccc(C#N)c6)ccc5=O)c4)nc3)CC2)C(C)(C)C)cc1	< 6.70	74	
Cc1ncsc1-c1ccc([C@H](C)NC(=O)[C@@H]2C[C@@H](O)CN2C(=O)[C@@H](NC(=O)CCCCCCC(=O)N2CCC(COc3cnc(-c4cccc(Cn5nc(-c6cccc(C#N)c6)ccc5=O)c4)nc3)CC2)C(C)(C)C)cc1	7.45	64	
Cc1ncsc1-c1ccc([C@H](C)NC(=O)[C@@H]2C[C@@H](O)CN2C(=O)[C@@H](NC(=O)CN2CCN(CCCC(=O)N3CCC(n4cc(-c5cnc(N)c(O[C@H](C)c6c(Cl)ccc(F)c6Cl)c5)cn4)CC3)CC2)C(C)(C)C)cc1		111	
Cc1ncsc1-c1ccc([C@H](C)NC(=O)[C@@H]2C[C@@H](O)CN2C(=O)[C@@H](NC(=O)CCCCCCCCNC(=O)c2ccc(-c3cnc4ncc(Cc5ccc6ncccc6c5)n4n3)cc2F)C(C)(C)C)cc1	7.35		
Cc1ncsc1-c1ccc([C@H](C)NC(=O)[C@@H]2C[C@@H](O)CN2C(=O)[C@@H](NC(=O)CCCCCCCCCCNC(=O)c2ccc(-c3cnc4ncc(Cc5ccc6ncccc6c5)n4n3)cc2F)C(C)(C)C)cc1	7.32		
Cc1ncsc1-c1ccc([C@H](C)NC(=O)[C@@H]2C[C@@H](O)CN2C(=O)[C@@H](NC(=O)CCCCCCCCCCC(=O)N2CCC(COc3cnc(-c4cccc(Cn5nc(-c6cccc(C#N)c6)ccc5=O)c4)nc3)CC2)C(C)(C)C)cc1	6.83	56	
Cc1ncsc1-c1ccc([C@H](C)NC(=O)[C@@H]2C[C@@H](O)CN2C(=O)[C@@H](NC(=O)CCCCCNC(=O)c2ccc(-c3cnc4ncc(Cc5ccc6ncccc6c5)n4n3)cc2F)C(C)(C)C)cc1	7.13	68	
Cc1ncsc1-c1ccc([C@H](C)NC(=O)[C@@H]2C[C@@H](O)CN2C(=O)[C@@H](NC(=O)CCOCCOCCOCCC(=O)N2CCC(COc3cnc(-c4cccc(Cn5nc(-c6cccc(C#N)c6)ccc5=O)c4)nc3)CC2)C(C)(C)C)cc1		56	
Cc1ncsc1-c1ccc([C@H](C)NC(=O)[C@@H]2C[C@@H](O)CN2C(=O)[C@@H](NC(=O)CCCCCCC(=O)N2CCC(n3cc(-c4cnc(N)c(O[C@H](C)c5c(Cl)ccc(F)c5Cl)c4)cn3)CC2)C(C)(C)C)cc1	< 6.70	78	
Cc1ncsc1-c1ccc([C@H](C)NC(=O)[C@@H]2C[C@@H](O)CN2C(=O)[C@@H](NC(=O)CN2CCN(CCCCCC(=O)N3CCC(n4cc(-c5cnc(N)c(O[C@H](C)c6c(Cl)ccc(F)c6Cl)c5)cn4)CC3)CC2)C(C)(C)C)cc1		115	

Compound	pIC50 (MKN-45 [1])	Activity [3] [%]	also measured
CN1C(=O)CCC(N2C(=O)c3ccc(N4CCN(CC5CCN(C(=O)c6ccc(-c7cnc8ncc(Cc9ccc%10ncccc%10c9)n8n7)cc6F)CC5)CC4)cc3C2=O)C1=O (stereo unspecified)	7.13		Activity [5]: inactive
Cc1ncsc1-c1ccc([C@H](C)NC(=O)[C@@H]2C[C@@H](O)CN2C(=O)[C@@H](NC(=O)CCCCCCCCCCCNC(=O)c2ccc(-c3cnc4ncc(Cc5ccc6ncccc6c5)n4n3)cc2F)C(C)(C)C)cc1	7.54	51	
Cc1ncsc1-c1ccc([C@H](C)NC(=O)[C@@H]2C[C@@H](O)CN2C(=O)[C@@H](NC(=O)COCCOCCOCCNC(=O)c2ccc(-c3cnc4ncc(Cc5ccc6ncccc6c5)n4n3)cc2F)C(C)(C)C)cc1		73	
Cc1ncsc1-c1ccc([C@H](C)NC(=O)[C@@H]2C[C@@H](O)CN2C(=O)[C@@H](NC(=O)CCOCCOCCOCCOCCC(=O)N2CCC(n3cc(-c4cnc(N)c(O[C@H](C)c5c(Cl)ccc(F)c5Cl)c4)cn3)CC2)C(C)(C)C)cc1		127	
Cc1ncsc1-c1ccc([C@H](C)NC(=O)[C@@H]2C[C@@H](O)CN2C(=O)[C@@H](NC(=O)COCCOCCNC(=O)c2ccc(-c3cnc4ncc(Cc5ccc6ncccc6c5)n4n3)cc2F)C(C)(C)C)cc1		70	
Cc1ncsc1-c1ccc([C@H](C)NC(=O)[C@@H]2C[C@@H](O)CN2C(=O)[C@@H](NC(=O)CN2CCN(CCCC(=O)N3CCC(COc4cnc(-c5cccc(Cn6nc(-c7cccc(C#N)c7)ccc6=O)c5)nc4)CC3)CC2)C(C)(C)C)cc1		61	
COc1cc2c(Oc3ccc(NC(=O)C4(C(=O)Nc5ccc(F)cc5)CC4)cc3F)ccnc2cc1OCCCOCCCOCCC(=O)N[C@H](C(=O)N1C[C@H](O)C[C@H]1C(=O)NCc1ccc(-c2scnc2C)cc1)C(C)(C)C			DC50 [6]: > 10 nM
Cc1ncsc1-c1ccc([C@H](C)NC(=O)[C@@H]2C[C@@H](O)CN2C(=O)[C@@H](NC(=O)CCCCCCCNC(=O)c2ccc(-c3cnc4ncc(Cc5ccc6ncccc6c5)n4n3)cc2F)C(C)(C)C)cc1	7.28	19	Activity [7]: > 80%
O=C(COc1cccc2c1C(=O)N(C1CCC(=O)NC1=O)C2=O)NCCCCCCCCNC(=O)c1ccc(-c2cnc3ncc(Cc4ccc5ncccc5c4)n3n2)cc1F (stereo unspecified)	7.82		Activity [2]: inactive
Cc1ncsc1-c1ccc([C@H](C)NC(=O)[C@@H]2C[C@@H](O)CN2C(=O)[C@@H](NC(=O)CN2CCN(CCCCNC(=O)c3ccc(-c4cnc5ncc(Cc6ccc7ncccc7c6)n5n4)cc3F)CC2)C(C)(C)C)cc1		78	
Cc1ncsc1-c1ccc([C@H](C)NC(=O)[C@@H]2C[C@@H](O)CN2C(=O)[C@@H](NC(=O)CN2CCN(CCNC(=O)c3ccc(-c4cnc5ncc(Cc6ccc7ncccc7c6)n5n4)cc3F)CC2)C(C)(C)C)cc1		61	
Cc1ncsc1-c1ccc([C@H](C)NC(=O)[C@@H]2C[C@@H](O)CN2C(=O)[C@@H](NC(=O)CCCCCCCCCCC(=O)N2CCC(n3cc(-c4cnc(N)c(O[C@H](C)c5c(Cl)ccc(F)c5Cl)c4)cn3)CC2)C(C)(C)C)cc1	< 6.70	73	
Cc1ncsc1-c1ccc([C@H](C)NC(=O)[C@@H]2C[C@@H](O)CN2C(=O)[C@@H](NC(=O)CCOCCOCCC(=O)N2CCC(n3cc(-c4cnc(N)c(O[C@H](C)c5c(Cl)ccc(F)c5Cl)c4)cn3)CC2)C(C)(C)C)cc1		107	
Cc1ncsc1-c1ccc([C@H](C)NC(=O)[C@@H]2C[C@@H](O)CN2C(=O)[C@@H](NC(=O)CCOCCOCCOCCOCCC(=O)N2CCC(COc3cnc(-c4cccc(Cn5nc(-c6cccc(C#N)c6)ccc5=O)c4)nc3)CC2)C(C)(C)C)cc1		62	
Cc1ncsc1-c1ccc([C@H](C)NC(=O)[C@@H]2C[C@@H](O)CN2C(=O)[C@@H](NC(=O)CN2CCN(CC(=O)N3CCC(COc4cnc(-c5cccc(Cn6nc(-c7cccc(C#N)c7)ccc6=O)c5)nc4)CC3)CC2)C(C)(C)C)cc1		40	
CN1CCC(COc2cnc(-c3cccc(Cn4nc(-c5cccc(C#N)c5)ccc4=O)c3)nc2)CC1			Activity (MKN-45 [4]): 107%
Cc1ncsc1-c1ccc([C@H](C)NC(=O)[C@@H]2C[C@@H](O)CN2C(=O)[C@@H](NC(=O)COCCOCCOCCOCCNC(=O)c2ccc(-c3cnc4ncc(Cc5ccc6ncccc6c5)n4n3)cc2F)C(C)(C)C)cc1		75	
Cc1ncsc1-c1ccc([C@H](C)NC(=O)[C@@H]2C[C@@H](O)CN2C(=O)[C@@H](NC(=O)CN2CCN(CCCCCC(=O)N3CCC(COc4cnc(-c5cccc(Cn6nc(-c7cccc(C#N)c7)ccc6=O)c5)nc4)CC3)CC2)C(C)(C)C)cc1		71	
